Data reported in PubChem BioAssay (NCI).
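Each compound was tested at five concentrations against cells in 96-well plates for 48 hours. GI50 marks 50% less growth. TGI: concentration producing complete growth inhibition.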

What was measured:
Assay in all cases: DTP human tumour cell line panel, 48 h
HL-60(TB) leukemia = tested on: HL-60(TB) leukemia
HCT-15 colon = tested on: HCT-15 colon
OVCAR-3 ovarian = tested on: OVCAR-3 ovarian
CAKI-1 renal = tested on: CAKI-1 renal
NCI-H460 lung = tested on: NCI-H460 lung
MOLT-4 leukemia = tested on: MOLT-4 leukemia
ACHN renal = tested on: ACHN renal
T-47D breast = tested on: T-47D breast
MDA-MB-435 = tested on: MDA-MB-435
MCF7 breast = tested on: MCF7 breast
SN12C renal = tested on: SN12C renal
TK-10 renal = tested on: TK-10 renal
A498 renal = tested on: A498 renal
OVCAR-8 ovarian = tested on: OVCAR-8 ovarian
MDA-MB-231 breast = tested on: MDA-MB-231 breast
SF-268 CNS = tested on: SF-268 CNS
SK-MEL-5 melanoma = tested on: SK-MEL-5 melanoma
786-0 renal = tested on: 786-0 renal
M14 melanoma = tested on: M14 melanoma
EKVX NSCLC = tested on: EKVX NSCLC
NCI-H23 lung = tested on: NCI-H23 lung
OVCAR-4 ovarian = tested on: OVCAR-4 ovarian
HOP-62 NSCLC = tested on: HOP-62 NSCLC
CCRF-CEM leukemia = tested on: CCRF-CEM leukemia
K-562 leukemia = tested on: K-562 leukemia
SF-539 CNS = tested on: SF-539 CNS
SNB-19 CNS = tested on: SNB-19 CNS
IGROV1 ovarian = tested on: IGROV1 ovarian
HCC-2998 colon = tested on: HCC-2998 colon
SF-295 CNS = tested on: SF-295 CNS
RXF 393 renal = tested on: RXF 393 renal
KM12 colon = tested on: KM12 colon
NCI-H226 lung = tested on: NCI-H226 lung
HT29 colon = tested on: HT29 colon
U251 CNS = tested on: U251 CNS
LOX IMVI melanoma = tested on: LOX IMVI melanoma
OVCAR-5 ovarian = tested on: OVCAR-5 ovarian
SNB-75 CNS = tested on: SNB-75 CNS
MALME-3M melanoma = tested on: MALME-3M melanoma
SK-MEL-2 melanoma = tested on: SK-MEL-2 melanoma
NCI-H522 lung = tested on: NCI-H522 lung
SK-OV-3 ovarian = tested on: SK-OV-3 ovarian
UACC-62 melanoma = tested on: UACC-62 melanoma
A549 NSCLC = tested on: A549 NSCLC
BT-549 breast = tested on: BT-549 breast
SW-620 colon = tested on: SW-620 colon
HS 578T breast = tested on: HS 578T breast
UO-31 renal = tested on: UO-31 renal
UACC-257 melanoma = tested on: UACC-257 melanoma
DU-145 prostate = tested on: DU-145 prostate
HOP-92 NSCLC = tested on: HOP-92 NSCLC
HCT-116 colon = tested on: HCT-116 colon
NCI/ADR-RES ovarian = tested on: NCI/ADR-RES ovarian
RPMI-8226 leukemia = tested on: RPMI-8226 leukemia
SK-MEL-28 melanoma = tested on: SK-MEL-28 melanoma
PC-3 prostate = tested on: PC-3 prostate
COLO 205 colon = tested on: COLO 205 colon

`O=C1C=CC2(O)OC/C(=C\c3ccccc3)C(O)=C2C1=O` (centres undefined) was tested, and the GI50 (HL-60(TB) leukemia) was 517 nM, the TGI (HL-60(TB) leukemia) was 7760 nM and the GI50 (HCT-15 colon) was 868 nM. It also gave a TGI (HCT-15 colon) of 3380 nM, a GI50 (OVCAR-3 ovarian) of 1140 nM and a TGI (OVCAR-3 ovarian) of 3230 nM. The GI50 (CAKI-1 renal) was 1590 nM, the TGI (CAKI-1 renal) was 3200 nM and the GI50 (NCI-H460 lung) was 1980 nM. For the same compound, the TGI (NCI-H460 lung) was 4320 nM, the GI50 (MOLT-4 leukemia) was 791 nM and the TGI (MOLT-4 leukemia) was 14400 nM. It also gave a GI50 (ACHN renal) of 1530 nM, a TGI (ACHN renal) of 2920 nM and a GI50 (T-47D breast) of 2470 nM. For the same compound, the TGI (T-47D breast) was 10600 nM, the GI50 (MDA-MB-435) was 1950 nM and the TGI (MDA-MB-435) was 4740 nM. It also gave a GI50 (MCF7 breast) of 1220 nM, a TGI (MCF7 breast) of 10200 nM and a GI50 (SN12C renal) of 1210 nM. For the same compound, the TGI (SN12C renal) was 8380 nM, the GI50 (TK-10 renal) was 2990 nM and the TGI (TK-10 renal) was 7840 nM. The GI50 (A498 renal) was 10800 nM, the TGI (A498 renal) was 22800 nM and the GI50 (OVCAR-8 ovarian) was 2710 nM. For the same compound, the TGI (OVCAR-8 ovarian) was 10300 nM, the GI50 (MDA-MB-231 breast) was 648 nM and the TGI (MDA-MB-231 breast) was 3510 nM. It also gave a GI50 (SF-268 CNS) of 2100 nM, a TGI (SF-268 CNS) of 7080 nM and a GI50 (SK-MEL-5 melanoma) of 1570 nM. The TGI (SK-MEL-5 melanoma) was 2980 nM, the GI50 (786-0 renal) was 1300 nM and the TGI (786-0 renal) was 3040 nM. The GI50 (M14 melanoma) was 2950 nM, the TGI (M14 melanoma) was 11700 nM and the GI50 (EKVX NSCLC) was 1900 nM. For the same compound, the TGI (EKVX NSCLC) was 5430 nM, the GI50 (NCI-H23 lung) was 1650 nM and the TGI (NCI-H23 lung) was 3380 nM. The GI50 (OVCAR-4 ovarian) was 2370 nM, the TGI (OVCAR-4 ovarian) was 8870 nM and the GI50 (HOP-62 NSCLC) was 2890 nM. It also gave a TGI (HOP-62 NSCLC) of 9320 nM, a GI50 (CCRF-CEM leukemia) of 534 nM and a TGI (CCRF-CEM leukemia) of 25900 nM. For the same compound, the GI50 (K-562 leukemia) was 476 nM, the TGI (K-562 leukemia) was > 100000 nM and the GI50 (SF-539 CNS) was 1240 nM. For the same compound, the TGI (SF-539 CNS) was 2870 nM, the GI50 (SNB-19 CNS) was 2650 nM and the TGI (SNB-19 CNS) was 9700 nM. It also gave a GI50 (IGROV1 ovarian) of 1830 nM, a TGI (IGROV1 ovarian) of 9700 nM and a GI50 (HCC-2998 colon) of 1820 nM. For the same compound, the TGI (HCC-2998 colon) was 3320 nM, the GI50 (SF-295 CNS) was 2580 nM and the TGI (SF-295 CNS) was 6320 nM. For the same compound, the GI50 (RXF 393 renal) was 1500 nM, the TGI (RXF 393 renal) was 2950 nM and the GI50 (KM12 colon) was 1400 nM. It also gave a TGI (KM12 colon) of 3020 nM, a GI50 (NCI-H226 lung) of 3110 nM and a TGI (NCI-H226 lung) of 31400 nM. For the same compound, the GI50 (HT29 colon) was 3620 nM, the TGI (HT29 colon) was 11800 nM and the GI50 (U251 CNS) was 1390 nM. For the same compound, the TGI (U251 CNS) was 3030 nM, the GI50 (LOX IMVI melanoma) was 1400 nM and the TGI (LOX IMVI melanoma) was 2760 nM. For the same compound, the GI50 (OVCAR-5 ovarian) was 2170 nM, the TGI (OVCAR-5 ovarian) was 4500 nM and the GI50 (SNB-75 CNS) was 1950 nM. It also gave a TGI (SNB-75 CNS) of 9680 nM, a GI50 (MALME-3M melanoma) of 1510 nM and a TGI (MALME-3M melanoma) of 5150 nM. For the same compound, the GI50 (SK-MEL-2 melanoma) was 2020 nM, the TGI (SK-MEL-2 melanoma) was 5770 nM and the GI50 (NCI-H522 lung) was 196 nM. For the same compound, the TGI (NCI-H522 lung) was 535 nM, the GI50 (SK-OV-3 ovarian) was 15200 nM and the TGI (SK-OV-3 ovarian) was > 100000 nM. It also gave a GI50 (UACC-62 melanoma) of 1510 nM, a TGI (UACC-62 melanoma) of 3760 nM and a GI50 (A549 NSCLC) of 2520 nM. The TGI (A549 NSCLC) was 6880 nM, the GI50 (BT-549 breast) was 2020 nM and the TGI (BT-549 breast) was 6980 nM. For the same compound, the GI50 (SW-620 colon) was 1600 nM, the TGI (SW-620 colon) was 3680 nM and the GI50 (HS 578T breast) was 259 nM. The TGI (HS 578T breast) was 3000 nM, the GI50 (UO-31 renal) was 722 nM and the TGI (UO-31 renal) was 2030 nM. The GI50 (UACC-257 melanoma) was 1820 nM, the TGI (UACC-257 melanoma) was 4500 nM and the GI50 (DU-145 prostate) was 2510 nM. For the same compound, the TGI (DU-145 prostate) was 9360 nM, the GI50 (HOP-92 NSCLC) was 1270 nM and the TGI (HOP-92 NSCLC) was 3590 nM. It also gave a GI50 (HCT-116 colon) of 1880 nM, a TGI (HCT-116 colon) of 4080 nM and a GI50 (NCI/ADR-RES ovarian) of 2570 nM. The TGI (NCI/ADR-RES ovarian) was 12700 nM, the GI50 (RPMI-8226 leukemia) was 285 nM and the TGI (RPMI-8226 leukemia) was 838 nM. It also gave a GI50 (SK-MEL-28 melanoma) of 2590 nM, a TGI (SK-MEL-28 melanoma) of 6410 nM and a GI50 (PC-3 prostate) of 1350 nM. It also gave a TGI (PC-3 prostate) of 4190 nM, a GI50 (COLO 205 colon) of 2630 nM and a TGI (COLO 205 colon) of 6330 nM.
